Measurements reported in US8552018B2, “Substituted tricyclic compounds as protein kinase inhibitors” (Arizona Board of Regents on behalf of the University of …, priority 2003, dated 2013).

How the values were obtained:
Format in all cases: cell-based
MIAPaCa-2 cells = test: Cancer cell cytotoxicity assay (sulforhodamine B); settings: Homo sapiens, MIA PaCa-2, 96 h; MIAPaCa-2, 4 days; read-out: IC50 PDGFR MIAPaCa
Protocol: (§1) To validate the hypothesis that the designed c-kit/PDGFR tyrosine kinase inhibitors mediate GIST882 cell killing and PDGFR-mediated cell killing of pancreatic cancer cell lines (CFPAC-1, PANC-1 and MIA PaCa-2), an in vitro cytotoxicity assay was performed. The GIST882 cell line used in this study has a c-kit gain-of-function mutation (K642E). The assay utilized the Cell Titer 965 Non-Radioactive Cell Proliferation Assay (Promega Corp., Madison, Wis.). First the cells were cultured. GIST882 cells were provided by Dr. Jonathan A. Fletcher (Dana-Farber Cancer Institute, Boston, Mass.). PANC-1 and MIAPaCa-2 cells were provided by Dr. Daniel Von Hoff (Arizona Cancer Center, Tucson, Ariz.). GIST882 cells were cultured in RPMI 1640 medium (Cat #21870-076, Invitrogen Corporation) supplemented with 300 mg/L L-glutamine, 100 unit/ml penicillin, 100 μg/ml streptomycin and 15% fetal bovine serum. PANC-1 and MIAPaCa-2 cells were maintained in RPMI 1640 medium (cat #10-040, Mediatech, Inc.) supplemented with 100 unit/ml penicillin, 100 μg/ml streptomycin and 10% fetal bovine serum. All the cell lines were incubated in a humidified incubator at 37° C. with 5% CO2 atmosphere.
(§2) Cells were plated at a density of 2000 to 10000 cells per well, depending on their growth rate, in 0.1 mL medium on day 0 in 96-well Falcon microtiter plates (#3072, Becton-Dickinson Labware, Lincoln Park, N.J.). On day 1, 10 μL of serial dilutions of the individual compounds were added to the plates in replicates of 4. After incubation for 4 days at 37° C. in a humidified incubator, the cells were fixed with 10% Trichloroacetic acid solution (Catalog No. 490-10, Sigma). Subsequently, they were labeled with 0.04% Sulforhodamine B (S9012, Sigma) in 1% acetic acid. After multiple washes to remove excess dye, 100 μl of 50 mM Tris solution was added to each well in order to dissolve the dye. The absorbance of each well was read on a plate reader (Wallac Vector^2, PerkinElmer) at the wavelength of 570 nm. Data were expressed as the percentage of survival of control calculated from the absorbance corrected for background absorbance. The surviving percent of cells was determined by dividing the mean absorbance values of the […] by the mean absorbance values of the control and multiplying by 100.

PANC-1 cells = test: Cancer cell cytotoxicity assay (sulforhodamine B); settings: Homo sapiens, 96 h; PANC-1, 4 days; read-out: IC50 PDGFR PANC-1
Protocol: as §1, §2

GIST882 cell line [1] = test: Cancer cell cytotoxicity assay (sulforhodamine B); settings: for IC50: Homo sapiens, 96 h, GIST882, 4 days, read-out: IC50 c-kit GIST882
Protocol: To validate the hypothesis that the designed c-kit/PDGFR tyrosine kinase inhibitors mediate GIST882 cell killing and PDGFR-mediated cell killing of pancreatic cancer cell lines (CFPAC-1, PANC-1 and MIA PaCa-2), an in vitro cytotoxicity assay was performed. The GIST882 cell line used in this study has a c-kit gain-of-function mutation (K642E). […] First the cells were cultured. GIST882 cells were provided by Dr. Jonathan A. Fletcher (Dana-Farber Cancer Institute, Boston, Mass.). PANC-1 and MIAPaCa-2 cells were provided by Dr. Daniel Von Hoff (Arizona Cancer Center, Tucson, Ariz.). […] All the cell lines were incubated in a humidified incubator at 37° C. with 5% CO2 atmosphere.
as §2, with “After” for “Cells were plated at a density of 2000 to 10000 cells per well, depending on their growth rate, in 0.1 mL medium on day 0 in 96-well Falcon microtiter plates (#3072, Becton-Dickinson Labware, Lincoln Park, N.J.). On day 1, 10 μL of serial dilutions of the individual compounds were added to the plates in replicates of 4. After”

GIST882 cell line [2] = test: GIST882 cell growth assay (Cell-Titer-Glo); settings: for IC50: Homo sapiens, GIST882, 96 hours
Protocol: (§3) Briefly, cells are seeded into 96-well, tissue-culture treated, opaque white plates (Thermo Electron, Vantaa, Finland), at between 5000 and 7500 cells per well, depending on the speed of cell proliferation, in 100 μl of appropriate growth medium (determined by the ATCC). Cells are then exposed to the appropriate concentration of drug or an equal amount of DMSO (drug diluent) and allowed to grow in its presence for 96 hours. Following this, 100 μl of Cell-Titer-Glo reagent (Promega, Inc., Madison, Wis.) is added to each well. Plates are then shaken for 2 minutes at room temperature to allow for cell lysis and incubated for 10 minutes to stabilize the luminescent signal. Similar to the Kinase-Glo assay reagent, this reagent contains both luciferase enzyme and its substrate luciferin. Luciferase, activated by ATP in the cell lysate, catalyzes the conversion of luciferin to oxyluciferin, a reaction which produces light. The amount of light produced is proportionate to the amount of ATP in the cell lysate, which is itself proportional to cell number and gives an index of cellular proliferation.
as §3, with “Various compounds of the invention, including (IV-1-3) (also referred to as HPK16), (III-1-3) (also referred to as HPK56), (III-1-4) (also referred to as HPK57), (III-1-5) (also referred to as HPK59), and (II-2-7) (also referred to as HPK61) were tested for activity against GIST tumor cells using the GIST882 cell line. Briefly,” for “Briefly,”

SMILES	IC50 (MIAPaCa-2 cells)	IC50 (PANC-1 cells)	IC50 (GIST882 cell line [1])	IC50 (GIST882 cell line [2])	cells alive at day 4 (GIST882 cell line [1]; GIST882, day 4)	inhibitory activity in GIST882 cell line (in words) (GIST882 cell line [2]; FIG. 29, 96 hours)
COc1cc2ncnc(N3CCN(C(=S)Nc4ccc(S(=O)(=O)Nc5ncccn5)cc4)CC3)c2cc1OC [HPK16, 4-(6,7-Dimethoxy-quinazolin-4-yl)-piperazine-1-carbothioic acid [4-(pyrimidin-2-ylsulfamoly)-phenyl]-amide]	> 50 µM	> 50 µM	50 µM	50 µM	–	–
S=C(NCc1ccc2c(c1)OCO2)N1CCN(c2ncnc3c2oc2ccccc23)CC1 [HPK56, 4-Benzo[4,5]furo[3,2-d]pyrimidin-4-yl-piperazine-1-carbothioic acid (benzo[1,3]dioxol-5-ylmethyl)-amide]	2.1 µM	3 µM	1.6 µM	1.6 µM	5%	highest inhibitory activity
COc1cc2[nH]c3ncnc(N4CCN(C(=S)Nc5ccc(S(=O)(=O)Nc6ncccn6)cc5)CC4)c3c2cc1OC [HPK62, 4-(6,7-Dimethoxy-9H-1,3,9-triaza-fluoren-4-yl)-piperazine-1-carbothioic acid [4-(pyrimidin-2-ylsulfamoyl)-phenyl]-amide]	> 50 µM	> 50 µM	28 µM	28 µM	–	–
